Experimental findings from ChEMBL document CHEMBL5214987, “Scaffold hopping via ring opening enables identification of acyclic compounds as new complement Factor D inhibitors” (Bioorg Med Chem, 2022) are described below.

One data set in a line: in vitro. Conditions: rabbit, rabbit erythrocytes.
Data set [1] is described as follows: AUC (0 to 24 hrs) in male Sprague-Dawley rat at 10 mg/kg, po. The data set is classed as ADME, organism-based. The arrangement: time < 24 hr, dose 10 mg/kg, route po. The settings on record: in vivo.
The nature of data set [2]: AUC (0 to 24 hrs) in male Sprague-Dawley rat at 2.5 mg/kg, iv. In kind it is ADME, organism-based. Details: time < 24 hr, dose 2.5 mg/kg, route iv. Conditions: in vivo.
Data set [3] is described as follows: Tmax in male Sprague-Dawley rat at 10 mg/kg, po. In kind it is ADME, organism-based. The settings on record: in vivo.
The nature of data set [4]: Tmax in male Sprague-Dawley rat at 2.5 mg/kg, iv. In kind it is ADME, organism-based. Conditions: in vivo.
The nature of data set [5]: Cmax in male Sprague-Dawley rat at 10 mg/kg, po. In kind it is ADME, organism-based. The arrangement: dose 10 mg/kg, route po. The settings on record: in vivo.
Data set [6] is described as follows: Cmax in male Sprague-Dawley rat at 2.5 mg/kg, iv. Details: dose 2.5 mg/kg, route iv. The data set is classed as ADME, organism-based. Conditions: in vivo.
Data set [7] in a line: Half-life in male Sprague-Dawley rat at 2.5 mg/kg, iv. In kind it is ADME, organism-based. The settings on record: in vivo.
Data set [8] can be described thus: Half-life in male Sprague-Dawley rat at 10 mg/kg, po. In kind it is ADME, organism-based. Conditions: in vivo.
Data set [9] can be described thus: AUClast in male Sprague-Dawley rat at 10 mg/kg, po. The data set is classed as ADME, organism-based. The arrangement: time 0 - last, dose 10 mg/kg, route po. Conditions: in vivo.
A short description of data set [10]: MRTlast in male Sprague-Dawley rat at 10 mg/kg, po. In kind it is ADME, organism-based. The settings on record: in vivo.
Data set [11] is described as follows: MRTlast at steady state in male Sprague-Dawley rat at 2.5 mg/kg, iv. In kind it is ADME, organism-based. The settings on record: in vivo.
Data set [12] can be described thus: Clearance in male Sprague-Dawley rat at 2.5 mg/kg, iv. In kind it is ADME, organism-based. Conditions: in vivo.
A short description of data set [13]: Volume of distribution at steady state in male Sprague-Dawley rat at 2.5 mg/kg, iv. The data set is classed as ADME, organism-based. Conditions: in vivo, read-out: Vdss.
Data set [14] in a line: AUClast in male Sprague-Dawley rat at 2.5 mg/kg, iv. In kind it is ADME, organism-based. The settings on record: in vivo. The arrangement: time 0 - last, dose 2.5 mg/kg, route iv.
The nature of data set [15]: Oral bioavailability in male Sprague-Dawley rat at 10 mg/kg. The settings on record: in vivo. The data set is classed as ADME, organism-based.
Data set [16] is described as follows: Initial plasma concentration in male Sprague-Dawley rat at 2.5 mg/kg, iv. The data set is classed as ADME, organism-based.

Description for in vitro: Hemolytic activity against rabbit erythrocytes incubated for 30 mins in presence of human serum and measured by hemolysis assay

As usually defined, the IC50 is the concentration at which inhibition is half-maximal. With `NC(=O)c1nn(CC(=O)N(CC(=O)NCc2cccc(Cl)c2F)C2CC2)c2ccc(NC(=O)NC3CCCCC3)cc12`, the IC50 at 30 min in the data set “in vitro” turned out to be 76 nM.
Same read-out and setting: the same measure for `CCN(CC)CCNC(=O)Nc1ccc2c(c1)c(C(N)=O)nn2CC(=O)N(CC(=O)NCc1cccc(Cl)c1F)C1CC1`: 110 nM.
Still for that read-out and setting: the figure for `NC(=O)c1nn(CC(=O)N(CC(=O)NCc2cccc(Cl)c2F)C2CC2)c2ccc(NC(=O)N3CCN(Cc4ccc(F)cc4)CC3)cc12` is 17 nM.
Broadly, the AUC(0-t) is exposure summed from dosing to a finite time, without extrapolation to infinity. A lower AUC(0-t) goes with less exposure. What is called Tmax is the time from dosing to the highest level. As usually defined, the Cmax is the maximum level reached in the sampled fluid or tissue. Usually half-life stands for how long it takes for the measured level to halve. A lower half-life goes with fast loss. Turning to `NC(=O)c1nn(CC(=O)N2CCC[C@H]2C(=O)NCc2cccc(Cl)c2F)c2ccccc12`, the AUC(0-t) at 24 h in [1] came to 257 ng·h/mL; in data set [2] it was 3410 ng·h/mL. In addition, the results for the Tmax in [3] and in [4] were 30 min and 4.98 min, respectively. Further, the Cmax in data set [5] worked out at 69.3 ng/mL; in data set [6], 6740 ng/mL. Also, the half-life in data set [7] is 298 min; in data set [8], 221 min.
In the data set “in vitro”, `COC(=O)c1ccc2c(C(N)=O)nn(CC(=O)N(CC(=O)NCc3cccc(Cl)c3F)C3CC3)c2c1` gave an IC50 at 30 min of 220 nM.
Take `NC(=O)c1nn(CC(=O)N(CC(=O)NCc2cccc(Cl)c2F)C2CC2)c2ccc(NC(=O)N3CCCC(F)(F)C3)cc12`: in the data set “in vitro”, the IC50 at 30 min came out at 17 nM.
The compound `NC(=O)c1nn(CC(=O)N(CC(=O)NCc2cccc(Cl)c2F)C2CC2)c2ccc(NC(=O)N3CCN(C4CC4)CC3)cc12` had an IC50 at 30 min in “in vitro” of 64 nM.
In turn, `CC(C)(C)NC(=O)Nc1ccc2c(c1)c(C(N)=O)nn2CC(=O)N(CC(=O)NCc1cccc(Cl)c1F)C1CC1` yielded an IC50 at 30 min in the data set “in vitro” of 73 nM.
Turning to `CC(C)(C)OC(=O)Nc1ccc2c(c1)c(C(N)=O)nn2CC(=O)N(CC(=O)NCc1cccc(Cl)c1F)C1CC1`, the IC50 at 30 min in “in vitro” is 34 nM.
The MRT last is the average time that molecules of a dose stay in the body. As a reminder, the clearance is a measure of how efficiently the substance is removed, as volume per time. By bioavailability is commonly meant dose-corrected exposure relative to a reference, in per cent. A lower bioavailability goes with little systemic uptake. Regarding `CN1CCC(N(C)C(=O)Nc2ccc3c(c2)c(C(N)=O)nn3CC(=O)N(CC(=O)NCc2cccc(Cl)c2F)C2CC2)CC1`, the exposure AUC(0-t) in data set [9] is 209 ng·h/mL; in data set [14] it was 3130 ng·h/mL. In “in vitro”, this compound had an IC50 at 30 min of 30 nM. Moreover, the MRT last in [10] was determined as 119 min; in data set [11], 21 min. Besides, in data set [3], the Tmax is 30 min. This compound also came in with a clearance in [12] of 13.5 mL/min/kg. Further, the concentration in data set [5] peaked (Cmax) at 113 ng/mL. For the same compound, the Vd in data set [13] was found to be 0.3 L/kg. Moreover, the bioavailability in [15] is 1.7%. The same compound registered a C0 in data set [16] of 9650 ng/mL. Besides, the half-life in data set [7] was 24.6 min; in [8], 69 min.
